Experimental data published in US20230312524A1, “ALPHA1A-ADRENERGIC RECEPTOR AGONISTS AND METHODS OF USE” (CuraSen Therapeutics, Inc., priority 2020, published 2023).
Where two headings read alike, the source gives them in different places.

Molecular target: T1, α1A-ARS (Homo sapiens, UniProt P35348)
T1 sequence (P35348 1-466): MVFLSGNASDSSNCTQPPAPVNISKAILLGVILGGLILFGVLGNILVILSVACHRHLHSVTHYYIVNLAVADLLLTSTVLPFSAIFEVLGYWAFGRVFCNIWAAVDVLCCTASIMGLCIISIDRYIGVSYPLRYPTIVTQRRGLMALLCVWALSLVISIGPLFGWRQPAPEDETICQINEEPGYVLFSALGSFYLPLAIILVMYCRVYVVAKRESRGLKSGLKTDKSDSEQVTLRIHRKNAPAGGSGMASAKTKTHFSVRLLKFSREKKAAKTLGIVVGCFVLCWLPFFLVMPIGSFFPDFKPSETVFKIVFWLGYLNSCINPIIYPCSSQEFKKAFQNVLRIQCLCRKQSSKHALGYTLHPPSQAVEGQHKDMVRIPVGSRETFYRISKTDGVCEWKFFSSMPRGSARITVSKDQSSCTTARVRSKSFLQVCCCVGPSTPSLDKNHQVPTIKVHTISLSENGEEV
Assay: Calcium flux assay (Calcium 6 dye) in cells expressing an α1-AR
Assay type: cell-based
Conditions: for Emax: read-out: Average Emax
From the text: Calcium flux experimental design: alpha-1 adrenergic receptors (α1-ARs) couple to Gq proteins, which results in downstream activation of phospholipase C and release of calcium from intracellular stores. Intracellular calcium increase upon α1-AR activation can be detected by Calcium 6 dye.
Cell preparation: cells expressing an α1-AR were washed in warmed phosphate-buffered saline to remove medium and harvested using versene (Caisson Labs, catalog #EDL01).
Media was removed from cells by tapping plates upside-down on absorbent wipes, followed by 15 second upside-down 50×g centrifugation, again on absorbent wipes. 12 μL cell dye solution was added to cells using a reagent dispenser (Integra viaFILL) and cells were incubated for 90 minutes at 37° C., 5% CO2.
Compound preparation: candidate alpha-adrenergic compounds, dissolved to 10 mM in DMSO, were diluted in_assay buffer (HBSS/H-EPES containing 2 mM CaCl2 and 2 mM probenecid sodium salt). […] On all assay plates, vehicle (DMSO) and positive control (10 μM epinephrine) conditions were included on the plate, as well as a dose-response curve of epinephrine. […] 384 well compound plates were centrifuged briefly at 250×g, sealed (Axygen PCR-SP) and incubated at 37° C. until the 90 minute cell dye incubation was complete.
Calcium 6 stained cells and 384 well compound plates were loaded onto the Flexstation and incubated on the machine for 5 minutes before initiating the assay.
For each assay well, baseline Calcium 6 fluorescence was detected for 18 seconds prior to 12 μL compound addition at 12 μL per second. Changes in Calcium 6 fluorescence were detected for a further 22 seconds, for a total read time of 40 seconds. All detection was performed with medium gain sensitivity, bottom read, with 6 flashes per read.
Data analysis: for calcium flux, analysis of maximum change from baseline over the 40-second read time was determined using Softmax Pro and data was exported as raw text files. Potency estimates (EC50) were derived from dose response curves (maximum change from baseline versus the log concentration of test compound) fit by four-parameter nonlinear regression using Graphpad Prism. Efficacy was determined by comparing the magnitude of the test compound signal window (fitted curve max−min) with the signal window of the full agonist control, epinephrine. […] All experiments were repeated a minimum of three times, with the average (mean) potency and maximum effect relative to the within-plate full agonist dose-response comparator reported.

[1] = calcium flux, α1A-AR, maximum effect relative to full agonist epinephrine
[2] = calcium flux, α1A-AR, mean of at least three experiments, read-out: Average PEC50

Row | SMILES | Emax [1] | EC50 [2] | Emax | EC50
1 | FC(F)(F)c1ccc(CC2=NCCN2)c(-c2ccccc2)c1 [Compound 75] | > 61% | 10 to 977 nM | – | –
2 | FCc1cc(Cl)ccc1CC1=NCCN1 [Compound 76] | – | 10 to 977 nM | 21 to 60% | –
3 | FC(F)(F)c1ccc(CC2=NCCN2)c(C2CC2)c1 [Compound 77] | – | 10 to 977 nM | > 61% | –
4 | CCc1cc(C(F)(F)F)ccc1CC1=NCCN1 [Compound 78] | – | < 9.77 nM | > 61% | –
5 | Fc1ccc(CC2=NCCN2)c(-c2ccccc2)c1 [Compound 79] | > 61% | < 9.77 nM | – | –
6 | Fc1ccc(CC2=NCCN2)c(C(F)(F)F)c1 [Compound 80] | – | > 1000 nM | 21 to 60% | –
7 | COc1ccc(CC2=NCCN2)c(C(F)(F)F)c1 [Compound 81] | – | 10 to 977 nM | > 61% | –
8 | FC(F)c1cc(Cl)ccc1CC1=NCCN1 [Compound 82] | – | 10 to 977 nM | 21 to 60% | –
9 | N#Cc1ccc(CC2=NCCN2)c(C(F)(F)F)c1 [Compound 83] | – | > 1000 nM | 21 to 60% | –
10 | CC(C)c1cc(Cl)ccc1CC1=NCCN1 [Compound 84] | – | 10 to 977 nM | 21 to 60% | –
11 | FC(F)(F)Oc1cc(Cl)ccc1CC1=NCCN1 [Compound 85] | – | 10 to 977 nM | 21 to 60% | –
12 | Cc1ccc(Cl)cc1CC1=NCCN1 [Compound 86] | – | 10 to 977 nM | 21 to 60% | –
13 | Cc1cccc(Cl)c1CC1=NCCN1 [Compound 87] | – | – | 21 to 60% | 10 to 977 nM
14 | CC(C)Cc1cc(Cl)ccc1CC1=NCCN1 [Compound 88] | – | 10 to 977 nM | > 61% | –
15 | Cc1c(Cl)cccc1CC1=NCCN1 [Compound 89] | – | > 1000 nM | 21 to 60% | –
16 | FC(F)(F)Cc1cc(Cl)ccc1CC1=NCCN1 [Compound 90] | – | > 1000 nM | 21 to 60% | –
17 | Clc1ccc(CC2=NCCN2)c(-n2cccc2)c1 [Compound 91] | > 61% | 10 to 977 nM | – | –
18 | FC(F)(F)c1coc2c(CC3=NCCN3)cccc12 [Compound 92] | – | > 1000 nM | 21 to 60% | –
19 | FC(F)(F)c1ccc(CC2=NCCN2)c(-n2cccn2)c1 [Compound 93] | > 61% | 10 to 977 nM | – | –
20 | Cc1coc(-c2cc(Cl)ccc2CC2=NCCN2)n1 [Compound 94] | 21 to 60% | 10 to 977 nM | – | –
21 | FC(F)(F)c1ccc(CC2=NCCN2)c(C2CCCCC2)c1 [Compound 96] | 21 to 60% | > 1000 nM | – | –
22 | CN(CC(F)(F)F)c1cc(C(F)(F)F)ccc1CC1=NCCN1 [Compound 97] | < 20% | > 1000 nM | – | –
23 | Cc1cc2c(C)c(CC3=NCCN3)cc(Cl)c2o1 [Compound 98] | – | 10 to 977 nM | 21 to 60% | –

Row | SMILES | Emax [1] | EC50 [2] | Emax | EC50
24 | CCc1c(Cl)cccc1CC1=NCCN1 [Compound 99] | – | > 1000 nM | 21 to 60% | –
25 | Cc1c(CC2=NCCN2)cc(Cl)c2[nH]ccc12 [Compound 100] | – | < 9.77 nM | > 61% | –
26 | Cc1c(CC2=NCCN2)cc(Cl)c2c1ccn2C [Compound 101] | – | < 9.77 nM | > 61% | –
27 | CC(C)Oc1cc(Cl)ccc1CC1=NCCN1 [Compound 102] | – | 10 to 977 nM | 21 to 60% | –
28 | Clc1ccc(CC2=NCCN2)c(-c2ccon2)c1 [Compound 104] | > 61% | 10 to 977 nM | – | –
29 | Cc1c(CC2=NCCN2)cc(Cl)c2c1cnn2C [Compound 105] | – | 10 to 977 nM | 21 to 60% | –
30 | Cc1c(CC2=NCCN2)cc(Cl)c2nn(C)cc12 [Compound 106] | – | 10 to 977 nM | 21 to 60% | –
31 | Cc1coc2c(Cl)cc(CC3=NCCN3)c(C)c12 [Compound 107] | – | < 9.77 nM | 21 to 60% | –
32 | Cc1c(CC2=NCCN2)cc(Cl)c2[nH]ncc12 [Compound 108] | – | 10 to 977 nM | > 61% | –
33 | Clc1cccc(CC2=NCCN2)c1-n1cccc1 [Compound 109] | > 61% | 10 to 977 nM | – | –
34 | CCc1cc(S(=O)(=O)CF)ccc1CC1=NCCN1 [Compound 110] | > 61% | 10 to 977 nM | – | –
35 | CCc1cc(S(=O)(=O)C(F)(F)F)ccc1CC1=NCCN1 [Compound 111] | > 61% | 10 to 977 nM | – | –
36 | CCc1cc(S(=O)(=O)C(F)F)ccc1CC1=NCCN1 [Compound 112] | > 61% | 10 to 977 nM | – | –
37 | CCc1cc(S(C)(=O)=O)ccc1CC1=NCCN1 [Compound 113] | > 61% | 10 to 977 nM | – | –
38 | FC(F)Oc1cc(Cl)ccc1CC1=NCCN1 [Compound 114] | – | 10 to 977 nM | 21 to 60% | –
39 | Cc1cccn1-c1c(Cl)cccc1CC1=NCCN1 [Compound 115] | 21 to 60% | > 1000 nM | – | –
40 | Cc1cccn1-c1cc(Cl)ccc1CC1=NCCN1 [Compound 116] | > 61% | 10 to 977 nM | – | –
41 | CC(C)C(F)(F)c1cc(Cl)ccc1CC1=NCCN1 [Compound 117] | – | 10 to 977 nM | 21 to 60% | –
42 | Clc1ccc(CC2=NCCN2)c(C2CCOCC2)c1 [Compound 118] | < 20% | > 1000 nM | – | –
43 | Clc1ccc(CC2=NCCN2)c(CC2CCOCC2)c1 [Compound 119] | < 20% | > 1000 nM | – | –
44 | Clc1ccc(CC2=NCCN2)c(Cc2ccccc2)c1 [Compound 120] | < 20% | > 1000 nM | – | –
45 | CCC(F)(F)c1cc(Cl)ccc1CC1=NCCN1 [Compound 121] | – | 10 to 977 nM | 21 to 60% | –
46 | Clc1ccc(CC2=NCCN2)c(N2CCCC2)c1 [Compound 122] | > 61% | 10 to 977 nM | – | –

Row | SMILES | Emax [1] | EC50 [2] | Emax | EC50
47 | Cc1cc(Cl)cc(C)c1CC1=NCCN1 [Compound 123] | – | 10 to 977 nM | > 61% | –
48 | COCc1cc(Cl)ccc1CC1=NCCN1 [Compound 124] | 21 to 60% | 10 to 977 nM | – | –
49 | Cc1cc(Cl)cc(Cl)c1CC1=NCCN1 [Compound 125] | – | 10 to 977 nM | > 61% | –
50 | Cc1c(CC2=NCCN2)cccc1C(F)(F)F [Compound 126] | – | 10 to 977 nM | 21 to 60% | –
51 | Cc1ccc(C(F)(F)F)cc1CC1=NCCN1 [Compound 127] | – | 10 to 977 nM | > 61% | –
52 | Cc1cc(OC(F)(F)F)ccc1CC1=NCCN1 [Compound 128] | – | 10 to 977 nM | 21 to 60% | –
53 | Cc1cc(OC(F)F)ccc1CC1=NCCN1 [Compound 129] | – | 10 to 977 nM | 21 to 60% | –
54 | Cc1cc(CC2=NCCN2)cc(C(F)(F)F)c1 [Compound 130] | – | 10 to 977 nM | > 61% | –
55 | FC(F)(F)c1cccc(CC2=NCCN2)c1Cl [Compound 131] | – | 10 to 977 nM | 21 to 60% | –
56 | FC(F)(F)c1ccc(Cl)c(CC2=NCCN2)c1 [Compound 132] | – | 10 to 977 nM | > 61% | –
57 | FC(F)(F)c1ccc(CC2=NCCN2)c(Cl)c1 [Compound 133] | – | 10 to 977 nM | 21 to 60% | –
58 | FC(F)(F)c1cccc(Cl)c1CC1=NCCN1 [Compound 134] | – | 10 to 977 nM | > 61% | –
59 | FC(F)(F)Oc1ccc(CC2=NCCN2)c(Cl)c1 [Compound 135] | – | 10 to 977 nM | 21 to 60% | –
60 | FC(F)Oc1ccc(CC2=NCCN2)c(Cl)c1 [Compound 136] | – | 10 to 977 nM | 21 to 60% | –
61 | CCC(F)(F)c1c(Cl)cccc1CC1=NCCN1 [Compound 137] | – | 10 to 977 nM | 21 to 60% | –
62 | FC(F)c1ccc(CC2=NCCN2)c(Cl)c1 [Compound 138] | – | 10 to 977 nM | > 61% | –
63 | Cc1c(CC2=NCCN2)ccc(S(C)(=O)=O)c1Cl [Compound 139] | 21 to 60% | > 1000 nM | – | –
64 | Cc1c(CC2=NCCN2)ccc(S(=O)(=O)CF)c1Cl [Compound 140] | > 61% | > 1000 nM | – | –
65 | CCc1c(CC2=NCCN2)ccc(S(=O)(=O)CF)c1Cl [Compound 141] | > 61% | > 1000 nM | – | –
66 | C[C@@H](F)c1cc(Cl)ccc1CC1=NCCN1 [Compound 142] | – | 10 to 977 nM | 21 to 60% | –
67 | CCc1c(CC2=NCCN2)ccc(S(C)(=O)=O)c1Cl [Compound 144] | 21 to 60% | > 1000 nM | – | –
68 | C[C@H](O)c1cc(Cl)ccc1CC1=NCCN1 [Compound 145] | < 20% | > 1000 nM | – | –
